Reference: patent US11111214B2 (priority 2013, dated 2021)

Key:
[1] = in vitro; settings: human, hepatocytes
[2] = target: T1, recombinant human kappa (KOR) opioid receptor (Homo sapiens, UniProt P41145); test: biochemical; format: binding
T1 construct: expressed in transfected cells; host or cells: CHO-K1 cell membranes

[3] = target: T2, KOR (kappa opioid receptor) (Homo sapiens, UniProt P41145); test: cell-based
T2 construct: expressed in transfected cells; host or cells: CHO-K1 cells stably expressing KOR

[4] = target: T3, recombinant human mu (MOR) opioid receptor (Homo sapiens, UniProt P35372); test: biochemical; format: binding; settings: for inhibition at 10 µM: read-out: Mu receptor % inhibition at single concentration, % inhibition @ 10 μM
T3 construct: expressed in transfected cells; host or cells: CHO-K1 cell membranes

[5] = in vitro; settings: rat, hepatocytes
[6] = not given; remark: listed apart in the source

T1 sequence (P41145 whole entry): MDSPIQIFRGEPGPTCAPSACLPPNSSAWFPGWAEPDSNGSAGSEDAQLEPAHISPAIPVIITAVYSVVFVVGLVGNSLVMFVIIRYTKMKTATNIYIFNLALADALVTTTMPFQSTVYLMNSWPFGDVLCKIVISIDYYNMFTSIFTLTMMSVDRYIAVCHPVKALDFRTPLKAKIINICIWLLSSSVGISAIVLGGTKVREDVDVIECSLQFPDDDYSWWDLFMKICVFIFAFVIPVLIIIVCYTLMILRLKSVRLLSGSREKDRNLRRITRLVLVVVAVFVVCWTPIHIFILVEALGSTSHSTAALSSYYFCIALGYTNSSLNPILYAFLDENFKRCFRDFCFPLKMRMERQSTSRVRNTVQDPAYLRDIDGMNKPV
T2 sequence (P41145 whole entry): as above
T3 sequence (P35372 whole entry): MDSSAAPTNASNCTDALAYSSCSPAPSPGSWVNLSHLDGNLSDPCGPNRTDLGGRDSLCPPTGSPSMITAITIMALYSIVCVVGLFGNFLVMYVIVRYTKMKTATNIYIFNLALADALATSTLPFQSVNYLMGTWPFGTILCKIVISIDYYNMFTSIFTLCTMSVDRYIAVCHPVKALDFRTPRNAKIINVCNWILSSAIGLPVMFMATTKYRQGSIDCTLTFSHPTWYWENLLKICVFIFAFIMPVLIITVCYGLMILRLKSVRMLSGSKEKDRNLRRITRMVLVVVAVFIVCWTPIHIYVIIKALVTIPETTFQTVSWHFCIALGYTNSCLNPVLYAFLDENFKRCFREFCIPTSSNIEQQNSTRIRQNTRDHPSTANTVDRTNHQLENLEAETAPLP

| SMILES | CLhep predicted [1] [mL/min/kg] | IC50 [2] [nM] | Ki [2] [nM] | EC50 [3] [nM] | inhibition at 10 µM [4] [%] | CLhep predicted [5] [mL/min/kg] | In vitro Hepatocyte Clearance, Human % hep Blood flow [%] | In vitro Hepatocyte Clearance, Rat % hep Blood flow [6] [%] | IC50 [4] [nM] |
| --- | --- | --- | --- | --- | --- | --- | --- | --- | --- |
| COCCOCCOCCOCCOCCNc1ccc([C@@H](CN2CCCC2)N(C)C(=O)Cc2ccc(Cl)c(Cl)c2)cc1 [compound 35, (S)—N-(1-(4-(2,5,8,11,14-pentaoxahexadecan-16-ylamino)phenyl)-2-(pyrrolidin-1-yl)ethyl)-2-(3,4-dichlorophenyl)-N-methylacetamide] | 15 | 24.7 | 5.7 | 2.59 | 30.6 | 26.5 | 65 | 44 |  |
| CCN(CCOC)C[C@H](c1ccccc1)N(C)C(=O)Cc1ccc(Cl)c(Cl)c1.Cl [compound 10, 2-(3,4-Dichlorophenyl)-N-{(1S)-2-[ethyl(2-methoxyethyl)amino]-1-phenylethyl}-N-methylacetamide] | 20.6 | 82.7 | 19.1 | 3.1 | 82.8 | 49.7 | 89 | 83 |  |
| CN(C(=O)Cc1ccc(Cl)c(Cl)c1)[C@H](CN1CCCC1)c1ccc(OCCO)cc1.Cl [compound 36, (S)-2-(3,4-dichlorophenyl)-N-(1-(4-(2-hydroxyethoxy)phenyl)-2-(pyrrolidin-1-yl)ethyl)-N-methylacetamide] | 16.5 | 0.43 | 0.1 | 0.029 | 64.9 | 14.3 | 71 | 24 |  |
| COCCOCCOCCO[C@H]1CCN(C[C@H](c2ccccc2)N(C)C(=O)Cc2ccc(Cl)c(Cl)c2)C1.Cl [compound 4, 2-(3,4-Dichlorophenyl)-N-{(1S)-2-[(3S)-3-(2-(2-(2-methoxyethoxy)ethoxy]ethoxy)pyrrolidin-1-yl)-1-phenylethyl}-N-methylacetamide] | 19.4 | 8.9 | 2.1 | 0.42 | 82 | 49 | 84 | 82 | 20400 |
| CN(C(=O)Cc1ccc(Cl)c(Cl)c1)[C@H](CN1CCCC1)c1ccccc1 [ICI-199,441, reference compound] | 19.7 |  |  |  |  | 44 | 85.0 | 73.0 |  |
| CN(C(=O)Cc1ccc(Cl)c(Cl)c1)[C@H](CN1CCCC1)c1cccc(NS(=O)(=O)CCOCC(F)(F)F)c1.Cl [compound 19, 2-(3,4-dichlorophenyl)-N-methyl-N-{(1S)-2-(pyrrolidin-1-yl)-1-[3-({[2-(2,2,2-trifluoroethoxy)ethyl]sulfonyl}amino)phenyl]ethyl}acetamide] | 11.7 | 0.69 | 0.16 | 0.08 | 99.1 | 26.8 | 50 | 45 |  |
| COCCOCCOCCOCCOCCOc1ccc([C@@H](CN2CCCC2)N(C)C(=O)Cc2ccc(Cl)c(Cl)c2)cc1.Cl [compound 34, (S)—N-(1-(4-(2,5,8,11,14-pentaoxahexadecan-16-yloxy)phenyl)-2-(pyrrolidin-1-yl)ethyl)-2-(3,4-dichlorophenyl)-N-methylacetamide] | 16.4 | 107 | 24.6 | 13 | 17.6 | 15.4 | 71 | 26 |  |
| COCCOCCOCCOCCOCCO[C@H]1CCN(C[C@H](c2ccccc2)N(C)C(=O)Cc2ccc(Cl)c(Cl)c2)C1 [compound 7, 2-(3,4-Dichlorophenyl)-N-methyl-N-{(1S)-2-[(3S)-3-(2,5,8,11,14-pentaoxahexadecan-16-yloxy)pyrrolidin-1-yl]-1-phenylethyl}acetamide] |  | 298 | 68.8 | 9 | 68.6 |  |  |  | 15600 |
| COCCOCC(=O)Nc1cccc([C@@H](CN2CC[C@H](O)C2)N(C)C(=O)C(c2ccccc2)c2ccccc2)c1 [compound 11, N-[(1S)-2-[(3S)-3-Hydroxypyrrolidin-1-yl]-1-(3-{[(2-methoxyethoxy)acetyl]amino}phenyl)ethyl]-N-methyl-2,2-diphenylacetamide] |  | 58.1 | 13.4 | 5.02 | 45.2 |  |  |  |  |
| CN(C(=O)Cc1ccc(Cl)c(Cl)c1)[C@H](CN1CC[C@H](OCCOCCOCC(=O)O)C1)c1ccccc1 [compound 29, {2-[2-({(3S)-1-[(2S)-2-{[(3,4-Dichlorophenyl)acetyl](methyl)amino}-2-phenylethyl]pyrrolidin-3-yl}oxy)ethoxy]ethoxy}acetic Acid] |  | 580 | 111 | 41.2 | 30.5 |  |  |  | 25900 |
| COCCOCCOCCO[C@H]1CCN(C[C@H](c2cccc(NS(C)(=O)=O)c2)N(C)C(=O)Cc2ccc(Cl)c(Cl)c2)C1 [compound 17, 2-(3,4-dichlorophenyl)-N-[(1S)-2-[(3S)-3-{2-[2-(2-methoxyethoxy)ethoxy]ethoxy}pyrrolidin-1-yl]-1-{3-[(methylsulfonyl)amino]phenyl}ethyl]-N-methylacetamide] |  | 1570 | 362 | 67.3 | 81.9 |  |  |  |  |
| CN(C(=O)C(c1ccccc1)c1ccccc1)[C@H](CN1CC[C@H](O)C1)c1ccccc1 [Asimadoline, asimadoline, reference compound] | 18.2 |  |  |  |  | 51 | 79.0 | 85.0 |  |
| CN(C(=O)Cc1ccc(Cl)c(Cl)c1)[C@H](CN1CC[C@H](OCC(=O)O)C1)c1ccccc1 [compound 24, ({(3S)-1-[(2S)-2-{[(3,4-dichlorophenyl)acetyl](methyl)amino}-2-phenylethyl]pyrrolidin-3-yl}oxy)acetic Acid] |  | 3590 | 468 | 265 | -7.9 |  |  |  | 158000 |
| COCCOCCOCCOCCOCCOCCOCCOC(=O)N[C@H](C(=O)Nc1cccc([C@@H](CN2CC[C@H](O)C2)N(C)C(=O)Cc2ccc(Cl)c(Cl)c2)c1)C(C)C [compound 48, N-(3-{(1S)-1-{[(3,4-Dichlorophenyl)acetyl](methyl)amino}-2-[(3S)-3-hydroxypyrrolidin-1-yl]ethyl}phenyl)-N^2-2,5,8,11,14,17,20,23-octaoxatetracosan-1-oylvalinamide] |  | 3.48 | 0.8 | 0.43 | 73.2 |  |  |  |  |
| CN(C(=O)Cc1ccc(Cl)c(Cl)c1)[C@H](CN1CC[C@H](OCCOCCOCCO)C1)c1ccccc1 [compound 27, 2-(3,4-Dichlorophenyl)-N-{(1S)-2-[(3S)-3-{2-[2-(2-hydroxyethoxy)ethoxy]ethoxy}pyrrolidin-1-yl]-1-phenylethyl}-N-methylacetamide] |  | 106 | 13.8 | 4.38 | 50.4 |  |  |  | 9220 |
